System: Danio rerio embryos
Settings: 96 h exposure, cyclophosphamide solution 1306 mg L^-1
[1] = materials: maintenance water after 1.5 h contact with the material

Description: Aiming to identify the ability of this material to decrease and/or remove the toxicity of the water samples treated, an ecotoxicity test was carried out resorting to assays with Danio rerio embryos. […] Assays with embryos of D. rerio were performed according to the Organisation for Economic Co-operation and Development (OECD) guideline 236 on Fish Embryo Acute Toxicity (FET) Test (OECD, 2013), with small adaptations.
Zebrafish embryos were exposed for 96 h, at a temperature of 26 ± 1 °C and a 16:8h light/dark photoperiod, and observations were made at each 24 h (i.e., 24, 48, 72, and 96 hours) with the help of a stereomicroscope (Zoom-SMZ 1500, Nikon Corporation).
In an embodiment, besides the mortality endpoint (that included coagulated eggs, arrested development, or lack of heartbeat), the sublethal endpoints concerning the hatching rate, final body length, and malformations (such as tail and skeletal malformations, oedemas, and delayed development) (Lammer et al. 2009; "Is the fish embryo toxicity test (FET) with the zebrafish (Danio rerio) a potential alternative for the fish acute toxicity test?" Comp. Biochem. Physiol. Part - C: Toxicol. Pharmacol. 149 (2):196 - 209) were also evaluated. […] Mortality, hatching rate, and percentage of abnormalities were expressed considering the total number of embryos exposed to the different treatments, while the final body length endpoint was evaluated concerning the number of alive larvae at the end of the assay.

O=P1(N(CCCl)CCCl)NCCCO1 (stereo not drawn) [cyclophosphamide]
final body length of zebrafish larvae (average length) (control 5.4 ± 0.2 cm): 4.4 ± 0.4 cm | malformations [1]: 52% | mortality [1]: 20%

Reference: EP4282522A1, “SILICA-SUPPORTED IONIC LIQUIDS FOR THE REMOVAL OF C[…] AQUEOUS SAMPLES” (Universidade de Aveiro, priority 2022, dated 2023)
